Measurements: ChEMBL document CHEMBL1152487, “3D-QSAR studies of HDACs inhibitors using pharmacophore-based alignment” (Eur J Med Chem, 2009)

Assay: Inhibition of HDAC

Row | SMILES | IC50 [nM] | pIC50
1 | O=C(CCCCCN1C(=O)c2ccccc2C1=O)NO | 103 | 6.99
2 | Cc1ccc(S(=O)(=O)Nc2ccc(/C=C/C(=O)NO)cc2)cc1 | 300 | 6.52
3 | O=C(Cc1ccc(NS(=O)(=O)c2ccccc2)cc1)NO | 1000 | 6
4 | O=C(CCCCC/C=C/c1ccc2ccccc2c1)NO |  | 8.22
5 | CC(=O)c1cc(/C=C/C(=O)NO)n(C)c1 | 11200 | 4.95
6 | Cn1cc(C=O)cc1CCC(=O)NO | 52600 | 4.28
7 | Cn1cc(C(=O)Cl)cc1/C=C/C(=O)NO | 9650 | 5.01
8 | Cn1cc(C=O)cc1/C=C/C(=O)NO | 12200 | 4.92
9 | O=C(CCCCCCC(=O)c1ccc(C(F)(F)F)cc1)NO |  | 7.35
10 | COc1ccc(S(=O)(=O)Nc2ccc(/C=C/C(=O)NO)cc2)cc1 | 60 | 7.22
11 | O=C(CCCCCCCc1ccc2ccccc2c1)NO |  | 7.6
12 | O=C(/C=C/c1ccc(NS(=O)(=O)c2ccc(Cl)cc2Cl)cc1)NO | 300 | 6.52
13 | O=C(/C=C/c1ccc(NS(=O)(=O)c2ccc(Cl)c(Cl)c2)cc1)NO | 100 | 7
14 | O=C(CCc1ccc(NS(=O)(=O)c2ccccc2)cc1)NO | 100 | 7
15 | O=C(CCCCCCC(=O)c1cccnc1)NO |  | 6.82
16 | O=C(CCCCCCC(=O)c1ccc(N2CCN(c3ccccc3)CC2)cc1)NO |  | 8.35
